Test results: patent publication US5866569A, “Naphthalenedione nitric oxide synthase (NOS) inhibitors” (Ontogen Corporation, priority 1997, dated 1999)

How the values were obtained:
[1] = target: T1, iNOS (Mus musculus, UniProt P29477); assay: Nitric oxide synthase activity assay (Griess reagent), iNOS partially purified from interferon-γ/LPS stimulated RAW 264.7 cells; format: biochemical; details: for IC50: 90 minutes at 37° C
T1 construct: iNOS was isolated from interferon-γ and lipopolysaacharide(LPS) stimulated mouse macrophage cells (RAW 264.7 cells); endogenous in cells; host or cells: RAW 264.7 mouse macrophage cells, induced overnight with interferon-γ and LPS; lysate partially purified on ADP sepharose
Experimental: Thus, iNOS was isolated from interferon-γ and lipopolysaacharide(LPS) stimulated mouse macrophage cells (RAW 264.7 cells). RAW cells were incubated overnight with interferon-γ and LPS. A lysate fraction was prepared by lysing the harvested cells in liquid nitrogen and thawing by incubation in a 37° C. water bath and run over an ADP sepharose column for partial purification.
(§1) Nitric Oxide Synthase activity was assayed by adding 10 μL of crude lysate 10 μL of substrate and 10 μL of a selected Compound as depicted in Formula I in DMSO to 70 μL of assay buffer in a 96-well microtiter plate. The wells were mixed gently and incubated for 90 minutes at 37° C. The reaction was stopped by adding 2 units of L-lactic dehydrogenase (5 μL of stock solution) and 5 μmole of sodium pyruvate (10 μL of stock solution). The solution was incubated for an additional 15 minutes at 37° C. 100 μL of Griess reagent was added and read absorbance at 560 nm.

[2] = target: nNOS (Homo sapiens, UniProt P29475); assay: Nitric oxide synthase activity assay, nNOS; format: biochemical
nNOS, sequence (P29475 whole entry): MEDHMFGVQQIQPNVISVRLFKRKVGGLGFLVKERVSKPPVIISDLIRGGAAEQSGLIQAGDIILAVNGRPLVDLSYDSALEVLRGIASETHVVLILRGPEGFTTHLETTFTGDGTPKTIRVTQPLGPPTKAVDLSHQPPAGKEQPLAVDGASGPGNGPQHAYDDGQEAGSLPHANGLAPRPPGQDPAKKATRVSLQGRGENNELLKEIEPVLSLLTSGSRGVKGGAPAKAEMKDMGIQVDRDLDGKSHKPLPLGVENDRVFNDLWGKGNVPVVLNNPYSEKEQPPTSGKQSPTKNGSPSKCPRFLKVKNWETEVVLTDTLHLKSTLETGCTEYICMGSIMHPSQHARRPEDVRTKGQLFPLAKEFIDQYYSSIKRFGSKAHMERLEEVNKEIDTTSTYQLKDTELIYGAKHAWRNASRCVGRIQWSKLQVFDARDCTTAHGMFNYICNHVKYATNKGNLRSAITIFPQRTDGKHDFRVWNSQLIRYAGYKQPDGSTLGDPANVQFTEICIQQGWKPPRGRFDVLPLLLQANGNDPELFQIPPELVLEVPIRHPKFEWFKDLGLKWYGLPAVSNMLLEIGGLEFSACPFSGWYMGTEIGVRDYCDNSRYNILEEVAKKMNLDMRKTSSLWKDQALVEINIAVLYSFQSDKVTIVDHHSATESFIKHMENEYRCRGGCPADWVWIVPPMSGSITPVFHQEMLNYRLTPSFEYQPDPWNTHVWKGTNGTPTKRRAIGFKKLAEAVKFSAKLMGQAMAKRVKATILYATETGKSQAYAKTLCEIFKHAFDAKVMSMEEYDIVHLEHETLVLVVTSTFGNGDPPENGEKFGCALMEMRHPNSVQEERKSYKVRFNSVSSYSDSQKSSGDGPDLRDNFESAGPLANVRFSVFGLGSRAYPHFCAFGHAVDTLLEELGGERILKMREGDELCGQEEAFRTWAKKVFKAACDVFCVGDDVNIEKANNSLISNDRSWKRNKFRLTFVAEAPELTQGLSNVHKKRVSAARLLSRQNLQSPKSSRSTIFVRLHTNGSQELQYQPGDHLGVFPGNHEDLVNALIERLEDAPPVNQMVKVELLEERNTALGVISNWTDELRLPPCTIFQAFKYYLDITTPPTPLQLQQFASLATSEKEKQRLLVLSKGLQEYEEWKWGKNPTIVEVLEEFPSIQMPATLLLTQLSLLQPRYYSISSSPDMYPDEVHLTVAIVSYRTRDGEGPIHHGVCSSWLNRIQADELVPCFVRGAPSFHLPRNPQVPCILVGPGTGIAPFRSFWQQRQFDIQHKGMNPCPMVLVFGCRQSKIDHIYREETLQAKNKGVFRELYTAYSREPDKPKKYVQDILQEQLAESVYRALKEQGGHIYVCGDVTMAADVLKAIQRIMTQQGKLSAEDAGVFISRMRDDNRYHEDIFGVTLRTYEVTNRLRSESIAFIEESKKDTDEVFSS
Experimental: as §1

Compound: O=C1C=C(Nc2ccccc2)c2ccccc2C1=O [Example 1]
- IC50 [1]: 27 µM

Compound: CCN(C1=CC(=O)C(=O)c2ccccc21)c1ccccc1 [Example 2]
- IC50 [1]: 16 µM

Compound: O=C1C=C(NCCCn2ccnc2)c2ccccc2C1=O [Example 3]
- IC50 [1]: 41 µM

Compound: O=C1C=C(NCCN2CCOCC2)c2ccccc2C1=O [Example 4]
- IC50 [1]: 45 µM

Compound: CC1CCCCN1CCCNC1=CC(=O)C(=O)c2ccccc21 (stereo not shown) [Example 5]
- IC50 [1]: 12 µM

Compound: CN1CCN(C2=CC(=O)C(=O)c3ccccc32)CC1 [Example 6]
- IC50 [1]: 5.4 µM
- IC50 [2]: 2000 nM

Compound: CCN1CCN(C2=CC(=O)C(=O)c3ccccc32)CC1 [Example 7]
- IC50 [1]: 8 µM

Compound: O=C1C=C(N2CCCc3ccccc32)c2ccccc2C1=O [Example 8]
- IC50 [1]: 13 µM

Compound: O=C1C=C(N2CCc3ccccc32)c2ccccc2C1=O [Example 9]
- IC50 [1]: 17 µM

Compound: COC(=O)[C@@H]1CCCN1C1=CC(=O)C(=O)c2ccccc21 [Example 10]
- IC50 [1]: 44 µM

Compound: O=C1C=C(N2CCNCC2)c2cc(O)ccc2C1=O [Example 11]
- inhibition at 10 µM ([1]; @ 10 μM, read-out: Percentage Inhibition iNOS): 34%

Compound: O=C1C=C(N2CCNCC2)c2ccccc2C1=O [Example 12]
- IC50 [1]: 9.9 µM
- IC50 [2]: 2100 nM

Compound: O=C1C=C(n2cncn2)c2ccccc2C1=O [Example 13]
- IC50 [1]: 7.8 µM

Compound: O=C1C=C(c2ccc[nH]2)c2ccccc2C1=O [Example 14]
- IC50 [1]: 7.4 µM

Compound: CC(C)(C)OC(=O)NCCNC1=CC(=O)C(=O)c2ccccc21 [Example 15]
- IC50 [1]: 3.8 µM
- IC50 [2]: 1100 nM

Compound: NCCNC1=CC(=O)C(=O)c2ccccc21 [Example 16]
- IC50 [1]: 11.2 µM
- IC50 [2]: 3200 nM

Compound: CC(=O)N1CCN(C2=CC(=O)C(=O)c3ccccc32)CC1 [Example 17]
- IC50 [1]: 5.4 µM

Compound: O=C1C=C(N2CCN(C(=O)c3ccc([N+](=O)[O-])cc3)CC2)c2ccccc2C1=O [Example 18]
- IC50 [1]: 6.2 µM
- IC50 [2]: 1200 nM

Compound: O=C1C=C(N2CCN(C(=O)NCc3ccccc3)CC2)c2ccccc2C1=O [Example 19]
- IC50 [1]: 2.2 µM
- IC50 [2]: 2100 nM

Compound: N=C(N)N1CCN(C2=CC(=O)C(=O)c3ccccc32)CC1 [Example 20]
- IC50 [1]: 0.67 µM
- IC50 [2]: 570 nM

Compound: COC(=O)[C@H](CCC(=O)N1CCN(C2=CC(=O)C(=O)c3ccccc32)CC1)NC(=O)OCC1c2ccccc2-c2ccccc21 [Example 21]
- IC50 [1]: 15.6 µM
- IC50 [2]: 1900 nM

Compound: O=C1C(=O)c2c(nc3ccccn23)-c2ccccc21 [Example 24]
- IC50 [1]: 2.3 µM
- IC50 [2]: 270 nM
